# Values of other authors in patent US7759338B2, “Soluble 1,4 benzodiazepine compounds and stable salts thereof” (The Regents of the University of Michigan, priority 2006, dated 2010).
# What was measured:
# [1] = molecular target: mitochondrial F1Fo-ATPase; conditions: F1Fo-ATPase inhibition
# rodents = conditions: two daily doses
smiles,measurement,setting,value
CC[C@H]1/C=C/C=C/C[C@@H](C)[C@H](O)[C@@](C)(O)C(=O)[C@@H](C)[C@H](O)[C@@H](C)C(=O)[C@@H](C)[C@H](O)[C@@H](C)/C=C/C(=O)O[C@@H]2[C@H](C)[C@H](CC1)O[C@]1(CC[C@H](C)[C@H](C[C@@H](C)O)O1)[C@H]2C [oligomycin],IC50,[1],10 nM
same,LD50,rodents,0.5 mg/kg
